Source: US11873291B2, “Quinoline cGAS antagonist compounds” (ImmuneSensor Therapeutics, Inc., priority 2020, dated 2024)
pIC50: −log10 of the molar value.

Each compound was assayed against T1, recombinant human cGAS (aa147-522) (Homo sapiens, UniProt Q8N884) (assay: In vitro inhibition assay of cGAS activity (ATP consumption, KinaseGlo Max)). Details: Table 2, read-out: cGAS Inhibition Results IC50.
T1 construct: recombinant human cGAS (aa147-522); His6-SUMO (cleaved yes); made in house; host or cells: E. coli BL21/pLys
Type: biochemical
Procedure, shortened: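 De-tagged recombinant human cGAS (aa147-522, 1.5 μg/mL) was incubated 20 min at 37 °C with herring testis DNA, 6.6 μM ATP and 0.1 mM GTP in Tris pH 7.5/MgCl2 buffer plus serial compound dilutions. Remaining ATP was read by KinaseGlo Max luminescence, and IC50 was fitted from % ATP consumption versus log concentration.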

T1 sequence (Q8N884 147-522): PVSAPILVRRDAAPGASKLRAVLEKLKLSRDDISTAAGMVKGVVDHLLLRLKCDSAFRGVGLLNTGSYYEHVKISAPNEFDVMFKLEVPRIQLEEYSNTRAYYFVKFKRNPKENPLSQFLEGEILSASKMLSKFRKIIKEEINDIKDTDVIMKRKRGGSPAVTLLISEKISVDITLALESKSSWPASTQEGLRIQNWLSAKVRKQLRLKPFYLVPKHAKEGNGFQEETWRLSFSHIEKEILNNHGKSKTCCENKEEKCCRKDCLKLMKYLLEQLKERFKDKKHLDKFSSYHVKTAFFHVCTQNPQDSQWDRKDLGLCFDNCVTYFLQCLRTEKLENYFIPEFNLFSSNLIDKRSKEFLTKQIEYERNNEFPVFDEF

| pIC50 | SMILES |
| --- | --- |
| < 4.52 | O=C(O)Cc1cccc(-c2cc(-n3ccnc3)c3ccc(Cl)cc3n2)c1 [I-9] |
| < 4.52 | Clc1ccc2c(-n3ccnc3)cc(NCc3ccncc3)nc2c1 [I-353, 7-chloro-4-(1H-imidazol-1-yl)-N-(pyridin-4-ylmethyl)quinolin-2-amine] |
| 4.52 to 5.70 | Clc1ccc2c(-n3ccnc3)cc(-c3ccc4nn[nH]c4c3)nc2c1 [I-35] |
| > 5.70 | OC[C@@H]1CCCN1c1cc(-c2cn[nH]c2)c2ccc(Cl)c(Cl)c2n1 [I-138] |
| 4.52 to 5.70 | CN(CCNS(=O)(=O)c1cccnc1)c1cc(-n2ccnc2)c2ccc(Cl)cc2n1 [I-231] |
| < 4.52 | O=C(O)c1cccc(-c2cc(-c3ccn[nH]3)c3ccc(Cl)cc3n2)c1 [I-74, 3-(7-Chloro-4-(1H-pyrazol-5-yl)quinolin-2-yl)benzoic acid] |
| > 5.70 | O=P(O)(O)CNc1cc(-c2cn[nH]c2)c2ccc(Cl)c(Cl)c2n1 [I-254, (7,8-dichloro-4-(1H-pyrazol-4-yl)quinolin-2-ylamino)methylphosphonic acid] |
| 4.52 to 5.70 | O=C(O)C1CCCN(c2cc(-n3ccnc3)c3ccc(Cl)cc3n2)C1 (centres unmarked) [I-122] |
| > 5.70 | O=C(O)[C@H](CO)Nc1cc(-n2ccnc2)c2ccc(Cl)c(Cl)c2n1 [I-168, (7,8-Dichloro-4-(1H-imidazol-1-yl)quinolin-2-yl)serine] |
| > 5.70 | O=C1CN(c2cc(-n3ccnc3)c3ccc(Cl)cc3n2)CCN1 [I-85] |
| > 5.70 | O=C(O)[C@@H]1CCCN1C(=O)C[C@@H]1CCCN1c1cc(-c2cn[nH]c2)c2ccc(Cl)c(Cl)c2n1 [I-325] |
| < 4.52 | Clc1ccc2c(-c3cncnc3)cc(-c3ccccc3)nc2c1 [I-71] |
| > 5.70 | O=S(=O)(O)CCCNc1cc(-n2ccnc2)c2ccc(Cl)c(Cl)c2n1 [I-160] |
| < 4.52 | COC(=O)c1cncc(-c2cc(-n3ccnc3)c3ccc(Cl)cc3n2)c1 [I-34] |
| < 4.52 | O=c1[nH]c2cc(-c3cc(-n4ccnc4)c4ccc(Cl)cc4n3)ccc2o1 [I-36] |
| 4.52 to 5.70 | CCNC(=O)[C@@H]1CCCN1c1cc(-n2ccnc2)c2ccc(Cl)c(Cl)c2n1 [I-451] |
| > 5.70 | C[C@@H](CC(=O)O)Nc1cc(-n2ccnc2)c2ccc(Cl)c(Cl)c2n1 [I-186] |
| 4.52 to 5.70 | O=C(O)C1CCCN(c2cc(-n3ccnc3)c3ccc(Cl)cc3n2)CC1 (centres unmarked) [I-363] |
| < 4.52 | CC(C)(C)c1ccc2c(-c3cn[nH]c3)cc(NCCS(N)(=O)=O)nc2c1 [I-268] |
| < 4.52 | Fc1ccc2c(-n3ccnc3)ccnc2c1 [I-416] |
| 4.52 to 5.70 | O=C(O)C1CN(c2cc(-n3ccnc3)c3ccc(Cl)cc3n2)CCS1 (centres unmarked) [I-89] |
| < 4.52 | Clc1ccc2c(-n3ccnc3)cc(OCCN3CCOCC3)nc2c1 [I-279] |

| pIC50 | SMILES |
| --- | --- |
| < 4.52 | Cc1cc(N2CCNC(=O)C2)c2ccc(Cl)c(Cl)c2n1 [I-302] |
| 4.52 to 5.70 | O=C(O)CN(Cc1ccncc1)c1cc(-n2ccnc2)c2ccc(Cl)c(Cl)c2n1 [I-176] |
| 4.52 to 5.70 | O[C@@H]1CCCN(c2cc(-n3ccnc3)c3ccc(Cl)c(Cl)c3n2)C1 [I-134] |
| > 5.70 | O=P(O)(O)OCC1CCCN(c2cc(-n3ccnc3)c3ccc(Cl)c(Cl)c3n2)C1 (centres unmarked) [I-113, (1-(7,8-dichloro-4-(1H-imidazol-1-yl)quinolin-2-yl)piperidin-3-yl)methyl dihydrogen phosphate] |
| < 4.52 | OC[C@@H]1CCCN1c1cc(-c2cn[nH]c2)nc2c(Cl)c(Cl)ccc12 [I-298] |
| > 5.70 | O=C(O)CCNC(=O)[C@@H]1CCCN1c1cc(-n2ccnc2)c2ccc(Cl)c(Cl)c2n1 [I-324] |
| 4.52 to 5.70 | CNC(=O)[C@@H]1CCCN1c1cc(-n2ccnc2)c2ccc(Cl)c(Cl)c2n1 [I-450] |
| < 4.52 | c1ccc2c(-n3ccnc3)ccnc2c1 [I-410] |
| < 4.52 | O=P(O)(O)Cc1cc(-n2ccnc2)c2ccc(Cl)c(Cl)c2n1 [I-251, ((7,8-dichloro-4-(1H-imidazol-1-yl)quinolin-2-yl)methyl)phosphonic acid] |
| < 4.52 | c1ccc2c(-n3cccn3)ccnc2c1 [I-413] |
| 4.52 to 5.70 | O=C(NO)[C@@H]1CCCN(c2cc(-n3ccnc3)c3ccc(Cl)cc3n2)C1 [I-137, (R)-1-(7-chloro-4-(1H-imidazol-1-yl)quinolin-2-yl)-N-hydroxypiperidine-3-carboxamide] |
| > 5.70 | CCOc1ccc(-c2cc(-n3ccnc3)c3ccc(Cl)cc3n2)cc1C(=O)O [I-19, 5-(7-chloro-4-(1H-imidazol-1-yl)quinolin-2-yl)-2-ethoxybenzoic acid] |
| > 5.70 | O=C(O)[C@@H]1C[C@@H](NS(=O)(=O)c2ccccc2)CN1c1cc(-n2ccnc2)c2ccc(Cl)c(Cl)c2n1 [I-349] |
| < 4.52 | Cc1ncn(-c2cc(-c3ccccc3)nc3cc(Cl)ccc23)c1C [I-61] |
| < 4.52 | CCOC(=O)C1CCN(c2cc(-n3ccnc3)c3ccc(Cl)cc3n2)C1 (centres unmarked) [I-447] |
| < 4.52 | Clc1ccc2c(-c3cccnc3)cc(-c3ccccc3)nc2c1 [I-69] |
| 4.52 to 5.70 | NC[C@@H]1CCCN1c1cc(-n2ccnc2)c2ccc(Cl)c(Cl)c2n1 [I-153, (S)-(1-(7,8-dichloro-4-(1H-imidazol-1-yl)quinolin-2-yl)pyrrolidin-2-yl)methanamine] |
| 4.52 to 5.70 | OC[C@H](Nc1cc(-n2ccnc2)c2ccc(Cl)c(Cl)c2n1)c1ccccc1 [I-247] |
| > 5.70 | O=C(CO)NC1(C(=O)O)CCCN(c2cc(-n3ccnc3)c3ccc(Cl)c(Cl)c3n2)C1 (centres unmarked) [I-125, 1-(7,8-dichloro-4-(1H-imidazol-1-yl)quinolin-2-yl)-3-(2-hydroxyacetamido) piperidine-3-carboxylic acid] |
| > 5.70 | O[C@@H]1CCN(c2cc(-n3ccnc3)c3ccc(Cl)c(Cl)c3n2)C1 [I-145] |
| 4.52 to 5.70 | CS(=O)(=O)NC1CCCN(c2cc(-n3ccnc3)c3ccc(Cl)cc3n2)C1 (centres unmarked) [I-105, N-(1-(7-chloro-4-(1H-imidazol-1-yl)quinolin-2-yl)piperidin-3-yl)methanesulfonamide] |
| > 5.70 | O=P(O)(O)CCNc1cc(-n2ccnc2)c2ccc(Cl)c(Cl)c2n1 [I-250] |

Same assay, conditions: Table 3, read-out: cGAS Inhibition Results IC50

| pIC50 | SMILES |
| --- | --- |
| > 5.70 | O=C(O)[C@H](O)[C@@H]1CCCN1c1cc(-n2ccnc2)c2ccc(Cl)c(Cl)c2n1 [I-661, (R)-2-((S)-1-(7,8-dichloro-4-(1H-imidazol-1-yl)quinolin-2-yl)pyrrolidin-2-yl)-2-hydroxyacetic acid] |
| 4.52 to 5.70 | O=C(C[C@@H]1CCCN1c1cc(-n2ccnc2)c2ccc(Cl)c(Cl)c2n1)NC1CCCNC1=O (some centres unmarked) [I-544] |
| > 5.70 | O=[PH](O)OC[C@@H]1CCCN1c1cc(-n2ccnc2)c2ccc(Cl)c(Cl)c2n1 [I-658, ((5)-1-(7,8-dichloro-4-(1H-imidazol-1-yl)quinolin-2-yl)pyrrolidin-2-yl)methyl hydrogen phosphonate] |
| 4.52 to 5.70 | O=C(O)[C@@H]1C[C@@H](OC(=O)N2CCOCC2)CN1c1cc(-n2ccnc2)c2ccc(Cl)c(Cl)c2n1 [I-606, (2S,4R)-1-(7,8-dichloro-4-(1H-imidazol-1-yl)quinolin-2-yl)-4-((morpholine-4-carbonyl)oxy)pyrrolidine-2-carboxylic acid] |
| > 5.70 | O=C(O)[C@@H]1C[C@@H](N2CCOCC2)CN1c1cc(-n2ccnc2)c2ccc(Cl)c(Cl)c2n1 [I-518] |
| 4.52 to 5.70 | COC(=O)[C@@H]1[C@H](OC)CCN1c1cc(-n2ccnc2)c2ccc(Cl)c(Cl)c2n1 [I-647] |
| > 5.70 | O=C(O)[C@@H]1CC(F)(F)CN1c1cc(-n2ccnc2)c2ccc(Cl)c(Cl)c2n1 [I-520] |
| > 5.70 | O=C(O)[C@@H]1[C@H]2C[C@H]2CN1c1cc(-n2ccnc2)c2ccc(Cl)c(Cl)c2n1 [I-480] |
| > 5.70 | C[C@@H]1C[C@@H](C(=O)O)N(c2cc(-n3ccnc3)c3ccc(Cl)c(Cl)c3n2)C1 [I-481] |
| > 5.70 | O=C(O)c1ccc(S(=O)(=O)NC[C@@H]2CCCN2c2cc(-n3ccnc3)c3ccc(Cl)c(Cl)c3n2)cc1 [I-640] |
| > 5.70 | O=C(C[C@@H]1CCCN1c1cc(-n2ccnc2)c2ccc(Cl)c(Cl)c2n1)NC1CCNC1=O (some centres unmarked) [I-541] |
| < 4.52 | O=C(O)CCOC[C@@H]1CCCN1c1ccc2ccc(Cl)c(Cl)c2n1 [I-827] |
| > 5.70 | COC(=O)CNC(=O)O[C@@H]1CCN(c2cc(-n3ccnc3)c3ccc(Cl)c(Cl)c3n2)[C@@H]1C(=O)OC [I-653, methyl (2S,3R)-1-(7,8-dichloro-4-(1H-imidazol-1-yl)quinolin-2-yl)-3-(((2-methoxy-2-oxoethyl)carbamoyl)oxy)pyrrolidine-2-carboxylate] |
| < 4.52 | COC(=O)c1cccc(S(=O)(=O)NCCN(C)c2cc(-n3ccnc3)c3ccc(Cl)c(Cl)c3n2)c1 [I-609] |
| > 5.70 | O=C(C[C@@H]1CCCN1c1cc(-n2ccnc2)c2ccc(Cl)c(Cl)c2n1)NS(=O)(=O)C(F)F [I-540] |
| 4.52 to 5.70 | COC(=O)[C@@H]1[C@@H](OC)CCN1c1cc(-n2ccnc2)c2ccc(Cl)c(Cl)c2n1 [I-646, methyl (2S,3S)-1-(7,8-dichloro-4-(1H-imidazol-1-yl)quinolin-2-yl)-3-methoxypyrrolidine-2-carboxylate] |
| 4.52 to 5.70 | COC(=O)[C@@H]1C[C@@H](O)CN1c1cc(-n2ccnc2)c2ccc(Cl)c(Cl)c2n1 [I-472] |
| > 5.70 | O=C(O)CO[C@H]1CCN(c2cc(-n3ccnc3)c3ccc(Cl)c(Cl)c3n2)C1 [I-770] |
| > 5.70 | O=C(O)C1CCCN(C(=O)C[C@@H]2CCCN2c2cc(-n3ccnc3)c3ccc(Cl)c(Cl)c3n2)C1 (some centres unmarked) [I-530] |
| 4.52 to 5.70 | COC(=O)[C@@H]1Cc2ccccc2N1c1cc(-n2ccnc2)c2ccc(Cl)c(Cl)c2n1 [I-581] |
| 4.52 to 5.70 | O=C(O)CCOC[C@H]1CCN(c2cc(-n3ccnc3)c3ccc(Cl)c(Cl)c3n2)C1 [I-772] |
| > 5.70 | CN(CCS(=O)(=O)NCCCO)c1cc(-n2ccnc2)c2ccc(Cl)c(Cl)c2n1 [I-632] |
| > 5.70 | O=C(NS(=O)(=O)C(F)F)[C@@H]1CCCN1c1cc(-n2ccnc2)c2ccc(Cl)c(Cl)c2n1 [I-545] |
| > 5.70 | O=C(O)CS(=O)(=O)NC[C@@H]1CCCN1c1cc(-n2ccnc2)c2ccc(Cl)c(Cl)c2n1 [I-639] |
